SMILES strings stand for the structures.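 Following 48 hours of exposure in 96-well plates, responses at five concentrations were used to interpolate endpoints linearly. At the TGI there is no net growth.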 Where a SMILES comes first, the peptide text is derived from it. [ ]: non-standard residue; d: D form. The star is where a group is joined. ξ: configuration not given here. NMeF = CN[CH](Cc1ccccc1)C(=O)O; ξNMe2Val = CC(C)C(C(=O)*)N(C)C; NMeV = CN[CH](C(=O)O)C(C)C; OtBu = CC(C)(C)O* Some results are limits rather than exact numbers.

Some test systems named below: MALME-3M melanoma; A549 NSCLC; UO-31 renal; MOLT-4 leukemia; HL-60(TB) leukemia; NCI-H23 lung; A498 renal; SN12C renal; HOP-92 NSCLC; SR leukemia; MDA-N.
Assay in all cases: NCI-60 cell line screen, 48 h

Regarding `COc1ccccc1C(=O)OCC1CCCN2CCCCC12` (centres undefined), the TGI with MALME-3M melanoma is above 100 µM; in the test on A549 NSCLC it was above 100 µM; in the test on UO-31 renal, above 100 µM; with MOLT-4 leukemia it was above 100 µM; with HL-60(TB) leukemia, 44.2 µM; in the test with NCI-H23 lung, above 100 µM. Also, the TGI in the test on A498 renal is above 100 µM; in the test with SN12C renal, 96 µM; in the test on HOP-92 NSCLC, above 100 µM.
`COc1ccc(Nc2nc(N)c(C(=O)c3ccc(Cl)cc3)s2)cc1`: the TGI in the test on A549 NSCLC was 22.3 µM; with UO-31 renal it was 16 µM; in the test with HL-60(TB) leukemia it was below 0.0331 µM; in the test on NCI-H23 lung it was 6.78 µM; with A498 renal, above 100 µM; with SN12C renal it was 22.3 µM. The same molecule registered a TGI with HOP-92 NSCLC above 93.3 µM.
As to `CC(C)C(C(=O)N(C)C(Cc1ccccc1)C(=O)N(C)C(C(=O)N(C)C(C(=O)N1CCCC1C(=O)OC(C)(C)C)C(C)C)C(C)C)N(C)C` (centres undefined) (ξNMe2Val-[NMeF][NMeV][NMeV]P-OtBu; configuration not given here), the TGI with A549 NSCLC is above 100 µM; with UO-31 renal, above 100 µM; with SR leukemia it was above 100 µM; with MOLT-4 leukemia, 33.7 µM; in the test with HL-60(TB) leukemia it was 94.7 µM; in the test on NCI-H23 lung it was above 100 µM. The same molecule displayed a TGI in the test on SN12C renal above 100 µM.
As to `CCCCCCCCCCCC[N+]12CC[N+](C)(CC1)CC2`, the TGI in the test on MALME-3M melanoma was above 100 µM; in the test on A549 NSCLC, above 100 µM; with UO-31 renal, above 100 µM; with SR leukemia it was 26.7 µM; with MOLT-4 leukemia, above 100 µM; in the test on HL-60(TB) leukemia it was 40.4 µM. Besides, the TGI in the test on NCI-H23 lung is 60.9 µM; in the test on SN12C renal it was above 100 µM; in the test with HOP-92 NSCLC, 47.7 µM.
Take `N#COc1ccc(Oc2ccc(OC#N)cc2)cc1`: the TGI in the test on MALME-3M melanoma was above 100 µM; in the test with A549 NSCLC, above 100 µM; in the test on UO-31 renal it was above 100 µM; with SR leukemia, 50.1 µM; in the test on MOLT-4 leukemia it was above 100 µM; in the test with HL-60(TB) leukemia it was above 100 µM. In addition, the TGI with NCI-H23 lung, with A498 renal, with SN12C renal and in the test on HOP-92 NSCLC was above 100 µM in each case.
Regarding `CSC(C1c2ccccc2N(C)c2[nH]c(=O)n(C)c(=O)c21)S(=O)(=O)c1ccc(C)cc1` (centres undefined), the TGI in the test with MALME-3M melanoma, with A549 NSCLC, with UO-31 renal, with MOLT-4 leukemia, in the test on HL-60(TB) leukemia and in the test on NCI-H23 lung was above 100 µM throughout. Also, the TGI in the test with A498 renal, with SN12C renal and with HOP-92 NSCLC was above 100 µM in each case.
Consider `CC(=O)OCC1OC(N=[N+]=[N-])C(OC(C)=O)C(OC(C)=O)C1OC1OC(COC(C)=O)C(OC(C)=O)C(OC(C)=O)C1OC(C)=O` (centres undefined), for which the TGI with MALME-3M melanoma, in the test with A549 NSCLC, in the test on UO-31 renal, with MOLT-4 leukemia, with HL-60(TB) leukemia and in the test with NCI-H23 lung was above 100 µM each time. Besides, the TGI with A498 renal and in the test on SN12C renal was above 100 µM in each case.
With `Nc1ccn(C2CCC(COP(=O)(O)OCC(O)COP(=O)(O)OCC3OC(n4cc(F)c(=O)[nH]c4=O)CC3O)O2)c(=O)n1` (centres undefined), the TGI in the test on MALME-3M melanoma, in the test on A549 NSCLC, in the test on UO-31 renal, in the test with MOLT-4 leukemia, with HL-60(TB) leukemia and in the test on NCI-H23 lung was above 100 µM in each case. Also, the TGI was above 100 µM in the test on SN12C renal, above 100 µM with MDA-N and 4.59 µM in the test on HOP-92 NSCLC.
`CCSc1nc(N/N=C/c2cccs2)c2cnn(CO)c2n1`: the TGI came to 26.9 µM with MALME-3M melanoma; 24.1 µM in the test on A549 NSCLC; 10.2 µM in the test with UO-31 renal; 26.7 µM in the test with SR leukemia; 42.1 µM in the test with HL-60(TB) leukemia; 17.3 µM in the test on NCI-H23 lung. Moreover, the TGI in the test on A498 renal is 9.53 µM; with SN12C renal, 30.6 µM; with HOP-92 NSCLC, above 100 µM.
Take `CCO/C(O)=c1/s/c(=C(\C#N)c2nc3ccccc3[nH]2)n(-c2ccccc2)c1=N`: the TGI with MALME-3M melanoma, in the test with A549 NSCLC, in the test on UO-31 renal, with MOLT-4 leukemia, in the test with HL-60(TB) leukemia and with NCI-H23 lung was above 100 µM in each case. Besides, the TGI with A498 renal, in the test on SN12C renal and with HOP-92 NSCLC was above 100 µM each time.
Consider `COC(=O)C(CCC1(C)OCCO1)=[N+]=[N-]`, for which the TGI in the test on MALME-3M melanoma, with A549 NSCLC, in the test on UO-31 renal, in the test with SR leukemia, in the test on MOLT-4 leukemia and in the test with HL-60(TB) leukemia was above 100 µM in each case. Also, the TGI with NCI-H23 lung, with A498 renal and with SN12C renal was above 100 µM throughout.
`Cc1ccc(NC(=O)C2C3CCC(O3)C2C(=O)O)cc1` (centres undefined): the TGI is above 100 µM with MALME-3M melanoma; above 100 µM in the test on A549 NSCLC; above 100 µM with UO-31 renal; 43.6 µM in the test with SR leukemia; above 100 µM with MOLT-4 leukemia; above 60.6 µM in the test on HL-60(TB) leukemia. The TGI in the test on NCI-H23 lung was above 100 µM; in the test with A498 renal it was above 75.7 µM; in the test with SN12C renal, above 81.4 µM; with HOP-92 NSCLC, above 92.9 µM.
With `O=c1[nH]c2ccc(CC(=S)N3CCOCC3)cc2o1`, the TGI in the test with MALME-3M melanoma, in the test with SR leukemia, in the test on MOLT-4 leukemia, in the test with HL-60(TB) leukemia, in the test on NCI-H23 lung and in the test with A498 renal was above 100 µM throughout.
Consider `CCCCCCCCCCCCOC1C(COCCN2CCCCC2)OC2OC(C)(C)OC21` (centres undefined), for which the TGI in the test with MALME-3M melanoma is 3.28 µM; in the test on A549 NSCLC, 19.9 µM; in the test with UO-31 renal it was 3.22 µM; in the test on MOLT-4 leukemia, 3.74 µM; in the test on HL-60(TB) leukemia, 3.02 µM; in the test on NCI-H23 lung, 6.06 µM. Moreover, the values for the TGI in the test on A498 renal, with SN12C renal and in the test with MDA-N were 29.3 µM, 4.72 µM and 2.9 µM, respectively.
As to `O=S(=O)(/N=C(\NO)Nc1ccc(Cl)cc1)c1cc2ccccc2s1`, the TGI came to 29.6 µM with MALME-3M melanoma; 38.1 µM in the test with A549 NSCLC; 48.7 µM with UO-31 renal; 77.8 µM in the test with MOLT-4 leukemia; 45.3 µM with HL-60(TB) leukemia; 30.5 µM in the test on NCI-H23 lung. Moreover, the TGI in the test with SN12C renal was determined as 33 µM; with MDA-N, 36.6 µM; in the test on HOP-92 NSCLC, 38.8 µM.

Values taken from PubChem BioAssay (NCI).
